Here are results for 14 compounds from PubChem BioAssay (NCI).

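1) Cells in 96-well plates. 2) Compound, 48 h, 5 concentrations. 3) Linear interpolation between surrounding doses. 4) Unreached endpoint = highest concentration. GI50 is the concentration that inhibits growth by half. TGI denotes the concentration required for complete inhibition of growth.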 Some results are limits rather than exact numbers.

Common to all, as to experiment: NCI tumour cell line growth inhibition, 48 h
Experiment [1] deals with EKVX NSCLC.
The test system of experiment [2] is NCI-H522 lung.
Experiment [3] relates to DU-145 prostate.
The subject of experiment [4] is SW-620 colon.
The test system of experiment [5] is A549 NSCLC.
In experiment [6] the test system is HCT-15 colon.
Experiment [7] concerns SK-MEL-28 melanoma.
Experiment [8] concerns HL-60(TB) leukemia.
The test system of experiment [9] is OVCAR-5 ovarian.
The subject of experiment [10] is OVCAR-3 ovarian.

On to `COc1ccc(C2c3cc4c(c(OC)c3CC3OCC(=O)C32)OCO4)cc1OC` (stereo not given), for which the GI50 is below 0.01 µM in experiment [1]; below 0.01 µM in experiment [3]; below 0.01 µM in experiment [4]; below 0.01 µM in [5]; below 0.01 µM in [6]; above 100 µM in experiment [9]. For the same compound, the TGI was above 100 µM in experiment [1]; 0.0181 µM in [2]; above 100 µM in experiment [4]; above 100 µM in experiment [5]; above 100 µM in experiment [6]; above 100 µM in [7]. Moreover, the TGI in [8] was below 0.01 µM; in experiment [9], above 100 µM.
With `C/C(=C\CCc1ccsc1)CC/C=C(\C)CCCN1CCN(CCO)CC1`, the GI50 in experiment [10] was 3.16 µM; in experiment [2] it was 1.91 µM; in experiment [3], 6.96 µM; in experiment [4] it was 1.93 µM; in experiment [5], 3.05 µM; in experiment [6], 2.42 µM. In addition, the figures for the GI50 in experiment [7], in [8] and in experiment [9] were 1.87 µM, 2.01 µM and 4.04 µM, respectively. Besides, the TGI came to 11.2 µM in experiment [10]; 4.71 µM in experiment [2]; 19.6 µM in [3]; 4.29 µM in experiment [4]; 13.3 µM in experiment [5]; 6.31 µM in experiment [6]. Besides, the TGI in experiment [7] was found to be 3.91 µM; in [8], 4.14 µM; in experiment [9], 17.6 µM.
Take `Cc1ccc(-n2nnc3c(sc4ccccc43)c2=O)cc1`: the GI50 in experiment [10] is 17 µM; in experiment [2], 63.5 µM; in experiment [3], 7.41 µM; in experiment [4], 26.2 µM; in [5], 5.23 µM; in experiment [6] it was above 100 µM. The GI50 in experiment [7], in experiment [8] and in experiment [9] was above 100 µM throughout. Moreover, the TGI in experiment [10], in [2], in experiment [3], in experiment [4], in [5] and in experiment [6] was above 100 µM each time. Further, the TGI in experiment [7], in experiment [8] and in experiment [9] was above 100 µM in each case.
As for `O=C(O)c1ccccc1-c1ccccc1C(=O)Nc1ccc2c(c1)Cc1ccccc1-2`, the TGI was 54.8 µM in [1]; 69.9 µM in experiment [10]; 55.2 µM in experiment [2]; above 100 µM in experiment [3]; above 100 µM in [4]; 97.5 µM in experiment [5]. Also, the TGI in experiment [6] was 56 µM; in experiment [7], above 100 µM; in experiment [9] it was 49.2 µM.
As to `Cc1cn(C2CC(N=[N+]=[N-])C(CO)O2)c(=O)[nH]c1=O` (stereo not given), the GI50 in experiment [1] was above 1000 µM; in experiment [10], above 1000 µM; in experiment [2] it was above 1000 µM; in experiment [4], above 1000 µM; in [5], 325 µM; in experiment [6] it was above 1000 µM. Besides, in experiment [9], the GI50 was above 1000 µM. For the same compound, the TGI in [1], in experiment [10], in experiment [2], in [3], in experiment [4] and in experiment [5] was above 1000 µM each time. Also, the TGI in [6], in experiment [8] and in [9] was above 1000 µM each time.
For `CCCCCCCCn1ccc2cc(NC(=O)Cn3cc(CN4CCC(C)CC4)nn3)ccc21`, the GI50 in experiment [1] was 1.67 µM; in experiment [10], 1.71 µM; in experiment [2], 1.73 µM; in [3] it was 1.94 µM; in experiment [4], 1.77 µM; in experiment [5], 1.74 µM. Also, the GI50 in experiment [6] is 1.61 µM; in [8] it was 1.77 µM; in experiment [9], 1.63 µM. The TGI in [1] was 3.66 µM; in experiment [10] it was 3.19 µM; in experiment [2], 3.48 µM; in [3] it was 3.9 µM; in experiment [4], 3.46 µM; in experiment [5] it was 3.4 µM. Moreover, the TGI in experiment [6] turned out to be 3.15 µM; in experiment [8], 3.58 µM; in [9] it was 3.42 µM.
On to `Cc1ccn2c(-c3csc(Nc4cccc(O)c4)n3)c(C)nc2c1`, for which the GI50 in [10] is 0.32 µM; in [2], 0.32 µM; in [3], 0.787 µM; in experiment [4], 0.337 µM; in experiment [5], 0.896 µM; in [6], 0.273 µM. Further, the GI50 in experiment [7] was 1.51 µM; in experiment [8], 0.343 µM; in experiment [9], 9.29 µM. Also, the TGI in experiment [10] was 0.914 µM; in experiment [2] it was 3.22 µM; in experiment [3] it was 25.3 µM; in experiment [4] it was 26.8 µM; in [5], 26.1 µM; in [6] it was 24 µM. Moreover, the TGI in experiment [7] is 36.3 µM; in experiment [8] it was 22.1 µM; in [9] it was above 81.2 µM.
For `Cc1ccc(-c2c3c(N)nc(-c4ccncc4)nc3nc3c2c(C)nn3-c2ccccc2)cc1`, the GI50 in experiment [10] is 7.65 µM; in experiment [2] it was above 37.5 µM; in experiment [3], 5.08 µM; in experiment [4] it was 9.99 µM; in experiment [5], 2.62 µM; in experiment [6], 13.6 µM. Further, the GI50 in experiment [7] is 7.69 µM; in experiment [8] it was above 37.5 µM; in experiment [9] it was above 37.5 µM. The TGI in [10] is 20.1 µM; in experiment [2] it was above 37.5 µM; in [3] it was 20.7 µM; in experiment [4] it was above 37.5 µM; in experiment [5] it was above 37.5 µM; in experiment [6], above 37.5 µM. Besides, the TGI in [7], in experiment [8] and in experiment [9] was above 37.5 µM each time.
As for `Cc1ccc(NC(C(=O)c2ccccc2)c2ccccc2)cc1` (stereo not given), the GI50 in experiment [1] is 1 µM; in experiment [10], 3.31 µM; in [3], 3.18 µM; in [4] it was 3.47 µM; in [5], 4.08 µM; in experiment [6] it was 27.7 µM. Also, the GI50 is 8.07 µM in [7], 2.59 µM in experiment [8] and 21.6 µM in experiment [9]. The TGI was 6 µM in experiment [1]; 59.9 µM in [10]; 15.4 µM in experiment [3]; above 100 µM in experiment [4]; above 100 µM in experiment [5]; above 100 µM in experiment [6]. Besides, the TGI in [7] is 37.3 µM; in experiment [8] it was 6.57 µM; in experiment [9], above 100 µM.
As to `S=C(Nc1ccc(Cl)cc1)SC1CCCCC1`, the TGI in experiment [1] was 47 µM; in experiment [10], 56.9 µM; in [2] it was 44.6 µM; in experiment [3], above 100 µM; in experiment [4], above 100 µM; in experiment [5] it was 56.4 µM. The TGI in experiment [6] was found to be 69.4 µM; in experiment [7] it was 49.6 µM; in experiment [9], 62 µM.
In the case of `COc1cc(-c2nccc3[nH]c(-c4cccc5[nH]ccc45)nc23)cc(OC)c1OC`, the GI50 was 0.0186 µM in experiment [1]; below 0.01 µM in [10]; below 0.01 µM in experiment [3]; below 0.01 µM in experiment [4]; below 0.01 µM in experiment [5]; below 0.01 µM in [6]. Moreover, the GI50 in [7] is 0.0347 µM; in experiment [8] it was below 0.01 µM; in experiment [9], 3.89 µM. The TGI in experiment [1] was 22 µM; in experiment [10], 11 µM; in [3], 15.6 µM; in experiment [4], 5.13 µM; in [5], 1.78 µM; in experiment [6] it was 12 µM. The TGI in [7] is 15.3 µM; in [8], below 0.01 µM; in experiment [9], 27.6 µM.
Turning to `C[C@@H](Oc1cc(-c2cnn(C3CC4(CNC4)C3)c2)cnc1N)c1c(Cl)ccc(F)c1Cl`, the GI50 is 9.94 µM in [10]; 10.2 µM in experiment [2]; 5.45 µM in [3]; 1.31 µM in experiment [4]; 3.09 µM in [5]; 4.04 µM in experiment [6]. Also, the GI50 in experiment [7] was 1.74 µM; in experiment [8] it was 1.59 µM; in [9], 1.82 µM. Further, the TGI in [10] amounted to 22.1 µM; in experiment [2], 25.4 µM; in experiment [3], 18.1 µM; in experiment [4], 11.9 µM; in experiment [5], 12.6 µM; in experiment [6], 15.1 µM. The TGI in [7] came to 4 µM; in [8] it was 6.76 µM; in experiment [9], 14.2 µM.
With `Nc1nc2c(c(=O)[nH]1)N=C(COP(=O)(O)OP(=O)(O)O)CN2`, the TGI in experiment [1], in experiment [2], in [3], in [4], in experiment [5] and in experiment [6] was above 100 µM throughout. The TGI in [7], in [8] and in [9] was above 100 µM each time.
For the compound `O=C1C=CC(=O)c2c1cc1ccccc1c2O`, the TGI in experiment [1] was 22.8 µM; in experiment [10] it was 4.8 µM; in [2], 3.98 µM; in experiment [3] it was 28.3 µM; in experiment [4] it was 3.59 µM; in experiment [5] it was 35.3 µM. The TGI in experiment [6] came to 13.3 µM; in [7] it was 20 µM; in [9], 32.5 µM.
